In patent US10052310B2, “Separase inhibitors and uses thereof” (Baylor College of Medicine, priority 2013, dated 2018):
pIC50: −log10 of the molar value.

What was measured:
HBL100 = test: MTT in vitro cytotoxicity assay; assay type: cell-based; details: Homo sapiens, HBL-100, HBL100, Breast, 72 h, read-out: IC50 growth inhibition
Description: (§1) The inhibitory effect of Sepin-1 on cell growth was assayed using the 3-(4,5-dimethylthiazol-2yl)-2,5-diphenyl-tetrazolium bromide (MTT) colorimetric dye reduction method (Cancer Chemother. Pharmacol., 2006, 58, 13-23). One hundred thirty-five μl of exponentially growing cancer cells were plated at a density of 0.4-1.0×10^5 cells/well in a 96-well microtiter plate. After 16 h, Sepin-1 at specified concentrations was added to each well. After 72 h of continuous drug exposure, 15 μl of 5 mg/ml MTT was added to each well and the plates were incubated for 4 h at 37° C. Medium was replaced with 150 μl of DMSO to solubilize the formazan, and the optical density (OD) was measured at 550 nm using a microplate spectrophotometer (Anthos Analytical, Durham, N.C., USA). Cell viability was calculated by subtracting the background OD of media alone from the OD of test wells, then dividing by the OD of the control (untreated) wells. Replicates of 3 wells were used for each drug concentration. The in vitro cytotoxicity assay was repeated once and the IC50 reported was the average of two independent experiments.

HL60 = test: MTT in vitro cytotoxicity assay; assay type: cell-based; details: Homo sapiens, HL-60, HL60, Leukemia, 72 h, read-out: IC50 growth inhibition
Description: as §1

Jurkat = test: MTT in vitro cytotoxicity assay; assay type: cell-based; details: Homo sapiens, Leukemia, 72 h, read-out: IC50 growth inhibition
Description: as §1

LAN-5 = test: MTT in vitro cytotoxicity assay; assay type: cell-based; details: Homo sapiens, LA-N-5, LAN-5, Neuroblastoma, 72 h, read-out: IC50 growth inhibition
Description: as §1

NGP = test: MTT in vitro cytotoxicity assay; assay type: cell-based; details: Homo sapiens, Neuroblastoma, 72 h, read-out: IC50 growth inhibition
Description: as §1

Raji = test: MTT in vitro cytotoxicity assay; assay type: cell-based; details: Homo sapiens, Leukemia, 72 h, read-out: IC50 growth inhibition
Description: as §1

SK-N-AS = test: MTT in vitro cytotoxicity assay; assay type: cell-based; details: Homo sapiens, Neuroblastoma, 72 h, read-out: IC50 growth inhibition
Description: as §1

SK-N-BE(2) = test: MTT in vitro cytotoxicity assay; assay type: cell-based; details: Homo sapiens, SKNBE2, Neuroblastoma, 72 h, read-out: IC50 growth inhibition
Description: as §1

T47D = test: MTT in vitro cytotoxicity assay; assay type: cell-based; details: Homo sapiens, Breast, 72 h, read-out: IC50 growth inhibition
Description: as §1

TT = test: MTT in vitro cytotoxicity assay; assay type: cell-based; details: Homo sapiens, Thyroid, 72 h, read-out: IC50 growth inhibition
Description: as §1

MCF7 = test: MTT in vitro cytotoxicity assay; assay type: cell-based, human
Description: as §1

Molt4 cells = test: Immunoblotting for apoptosis induction; assay type: cell-based, human; details: various concentrations of Sepin-1, 24 h, Western blot
Description: To determine the mechanism of cell growth inhibition induced by Sepin-1, Applicants performed immunoblotting to investigate if apoptosis is induced after Molt4 cells were treated with Sepin-1. Activation of caspase-3 and cleavage of poly(ADP-ribose) polymerase (Parp-1) are two commonly used parameters in determination of apoptosis. Applicants used Etoposide as a positive control, which is a well-known chemotherapy agent that induces DNA damage by interacting with topoisomerase II. […] In addition, Applicants observed that the effect of Sepin-1 on the activation of caspase-3 and degradation of Parp-1 is similar to that of Etoposide (FIG. 8F).
Preparation of protein samples and Western blot were performed as described previously (J Cell Biol, 2008, 183, 1019-1031; PLoS. ONE., 2013, 8, e69458).

C57B6 mice = test: Toxicity of Sepin-1 in mice, single intravenous dose; assay type: in vivo
Description: To investigate the toxicity in mice, Applicants injected Sepin-1 at a single dose in the range of 50-100 mg/kg body weight into C57B6 mice via tail vein.
Based on the above results, Applicants expanded this study to identify the Severely Toxic Dose (i.e., dose that causes death or irreversible severe toxicity, in 10% of rodents, STD10) using more mice injected at 75 to 90 mg/Kg range. A dose of 80 mg/Kg was estimated as STD10 for Sepin-1 in these mice.
To test Maximum Tolerated Dose (MTD) and No Observable Effect Level (NOEL) of Sepin-1, Applicants applied 200 μl Sepin-1 (diluted in PBS) one time at an acute dose range of 50 to 100 mg/kg body weight to 8-10 weeks old C57B6 mice (˜25 g) through intravenous tail vein injection (n=3/group). Except for the MTD dose, after Sepin-1 injection, the mice were returned to the cage and their reaction to the drug was monitored from one week to several months. Complete necropsy, blood chemistry and pathology of the Sepin-1 injected mice were carried out by the Comparative Pathology Laboratory at the Baylor College of Medicine.

mice = test: Repeated intraperitoneal dosing tolerability in mice; assay type: in vivo; details: 10 mg/kg intraperitoneal injection daily for six weeks, 12 mice
[1] = system: Separase overexpressing primary pediatric glioblastoma samples; test: MTT cytotoxicity assays in primary pediatric glioblastoma samples; assay type: cell-based; details: two Separase overexpressing primary pediatric glioblastoma samples
Description: FIG. 10 provides data relating to separase overexpression in Pediatric glioblastoma (GBM) and the effect of Sepin-1 in inhibiting the growth of glioblastoma cells in vitro and in vivo. […] SCID-beige mice after two weeks of transplantation were treated at a dose of 10 mg/kg daily ip for 5 days a week for 4 weeks with either Sepin-1 or vehicle (n=6/group).

[2] = <80 mg/kg single dose via tail vein

CC1(C)[N+]([O-])=c2ccc([N+](=O)[O-])cc2=[N+]1[O-] [Sepin-1, 2,2-dimethyl-5-nitro-2H-benzimidazole-1,3 dioxide]
pIC50 (HBL100): 4.94
pIC50 (HL60): 5.05
pIC50 (Jurkat): 4.85
pIC50 (LAN-5): 5.30
pIC50 (NGP): 5.11
pIC50 (Raji): 5.36
pIC50 (SK-N-AS): 4.77
pIC50 (SK-N-BE(2)): 5.07
pIC50 (T47D): 4.51
pIC50 (TT): 4.47
pIC50 (MCF7; Homo sapiens, MCF7, Breast, 72 h, read-out: IC50 growth inhibition): 4.84
sensitivity of MCF7 cells relative to MCF10f cells (MCF7; MCF7 versus MCF10f): over 3.3 times
activation of caspase-3 (Molt4 cells): caspase-3 proenzyme was induced and activated
cleavage of poly(ADP-ribose) polymerase (Parp-1) (Molt4 cells): Parp-1 cleavage
time to death after injection (C57B6 mice; 90 mg/kg single dose via tail vein): 30 to 90 min
effect of dose <80 mg/kg (C57B6 mice; [2]): no apparent effect
survival after injection (C57B6 mice; [2]): over 6 months
Severely Toxic Dose in 10% of rodents (STD10) (C57B6 mice; mice injected at 75 to 90 mg/Kg range): 80 mg/kg
histopathology of major organs (C57B6 mice; mouse, in vivo): no significant lesions in major organs
weight loss and adverse effects (mice): no weight loss or apparent adverse effects
cell death in MTT cytotoxicity assays [1]: efficient cell death
